What all share (experiment): growth of human tumour cells (NCI), 48 h
The test system of test [1] is OVCAR-3.
Test [2] deals with HCC 2998.
Test [3] has as its system HOP-92.
Test [4] deals with RXF 393.
Test [5] deals with MDA-MB-231.
In test [6] the test system is SW-620.
Test [7] concerns LOX IMVI.
The test system of test [8] is SK-MEL-2.
Test [9] relates to SK-MEL-28.
The test system of test [10] is M14.
The subject of test [11] is MDA-N.
Test [12] concerns SR.
Test [13] relates to SF-268.
Test [14] concerns IGROV-1.
Test [15] deals with 786-0.
Test [16] concerns NCI-H226.
The subject of test [17] is KM12.
For test [18], the system named is CAKI-1.
The test system of test [19] is Malme-3M.
Test [20] relates to A549.

SMILES strings stand for the structures.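 Interpolation was linear, between the two tested concentrations surrounding the appropriate level; five concentrations were tested over 48 hours in 96-well plates. GI50: concentration for 50% inhibition of growth.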 The source made the active and inactive calls. Rule as the data show it: active = GI50 up to about 1.1 µM and inactive = higher.

As to `COc1c2c(cc3nc4ccccc4nc13)CC[C@H](NC(C)=O)c1cc(=O)c(SC)ccc1-2`, the GI50 was 785 nM (active) in test [1]; 1250 nM (inactive) in test [2]; 5750 nM (inactive) in test [3]; 2740 nM (inactive) in test [4]; 2960 nM (inactive) in test [5]; 582 nM (active) in test [6]. Besides, the GI50 in test [7] was 755 nM (active); in [8] it was 3050 nM (inactive); in [9], 12700 nM (inactive); in test [10], 550 nM (active); in [11], 180 nM (active); in test [12], 322 nM (active). Also, the GI50 in test [13] was 1150 nM (inactive); in test [14] it was 236 nM (active); in test [15] it was 506 nM (active); in test [16], 1080 nM (active); in [17] it was 273 nM (active); in test [18], 5620 nM (inactive). Also, the GI50 in test [19] is 288 nM (active); in test [20], 4290 nM (inactive).

(Values after ChEMBL document CHEMBL1201862, “PubChem BioAssay data set” (2004).)
